In patent publication US11572353B2, “Alkynyl-substituted heterocyclic compound, preparation method therefor and medical use thereof” (BEIJING INNOCARE PHARMA TECH CO., LTD., priority 2016, dated 2023):

Experiments:
[1] = biological target: human recombinant FGFR4 catalytic domain protein (amino acid 460-802) (Homo sapiens (Human), UniProt P22455); experiment: FGFR4 activity inhibition test (HTRF kinase assay); format: biochemical; conditions: 90 μM ATP
Method: (§1) The effect of the compounds of the present invention on the in vitro activity of FGFR was assessed by measuring the phosphorylation level of the substrate in a kinase reaction using the HTRF kinase assay kit (Table 1).
(§2) If the IC50 value of a compound is very low, the initial concentration of the compound can be lowered.
(§3) The IC50 value of the compound was calculated from the 10 concentration points using the XLfit software in Excel by the following formula: Y=Bottom+(Top−Bottom)/(1+10^((log IC50−X)*slope factor))
(§4) Where Y is the percentage of inhibition, Bottom is the bottom platform value of the S-curve, Top is the top platform value of the S-curve, X is the logarithm of the concentration of the compound to be tested, and slope factor is the slope coefficient of the curve.

[2] = biological target: human recombinant FGFR2 catalytic domain protein (amino acid 400-821) (Homo sapiens (Human), UniProt P21802); experiment: FGFR2 activity inhibition test (HTRF kinase assay); format: biochemical; conditions: 50 μM ATP
Chain of human recombinant FGFR2 catalytic domain protein (amino acid 400-821) (P21802 400-821): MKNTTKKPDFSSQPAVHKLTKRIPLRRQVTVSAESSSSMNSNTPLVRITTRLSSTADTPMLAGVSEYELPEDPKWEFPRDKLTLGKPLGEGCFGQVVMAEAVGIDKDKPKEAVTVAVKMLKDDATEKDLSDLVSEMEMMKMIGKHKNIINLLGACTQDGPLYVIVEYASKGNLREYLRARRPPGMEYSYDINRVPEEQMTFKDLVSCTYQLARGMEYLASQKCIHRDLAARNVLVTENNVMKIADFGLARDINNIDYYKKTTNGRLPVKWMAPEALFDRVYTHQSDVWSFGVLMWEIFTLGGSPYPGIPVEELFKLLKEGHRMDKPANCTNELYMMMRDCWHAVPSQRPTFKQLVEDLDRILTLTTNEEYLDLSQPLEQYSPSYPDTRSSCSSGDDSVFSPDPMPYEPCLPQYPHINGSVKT
Method: as §1, §2, §3, §4

[3] = biological target: human recombinant FGFR3 catalytic domain protein (amino acid 399-806) (Homo sapiens (Human), UniProt P22607); experiment: FGFR3 activity inhibition test (HTRF kinase assay); format: biochemical; conditions: 90 μM ATP
Chain of human recombinant FGFR3 catalytic domain protein (amino acid 399-806) (P22607 399-806): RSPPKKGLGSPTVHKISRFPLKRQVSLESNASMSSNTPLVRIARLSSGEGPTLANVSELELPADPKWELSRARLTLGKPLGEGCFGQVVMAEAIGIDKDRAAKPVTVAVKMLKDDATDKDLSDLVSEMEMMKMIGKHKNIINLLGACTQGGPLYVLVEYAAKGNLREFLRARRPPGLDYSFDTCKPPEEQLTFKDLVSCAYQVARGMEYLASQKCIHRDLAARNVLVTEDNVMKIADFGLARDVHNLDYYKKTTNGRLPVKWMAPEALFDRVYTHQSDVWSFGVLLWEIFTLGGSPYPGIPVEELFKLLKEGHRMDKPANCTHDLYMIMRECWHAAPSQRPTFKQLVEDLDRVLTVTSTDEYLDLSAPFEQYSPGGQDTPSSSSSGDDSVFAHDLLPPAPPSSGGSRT
Method: as §1, §2, §3, §4

[4] = biological target: human recombinant FGFR1 catalytic domain protein (amino acid 308-731) (Homo sapiens (Human), UniProt P11362); experiment: FGFR1 activity inhibition test (HTRF kinase assay); format: biochemical; conditions: 40 μM ATP
Chain of human recombinant FGFR1 catalytic domain protein (amino acid 308-731) (P11362 other isoform, or with tags, fused parts or gaps): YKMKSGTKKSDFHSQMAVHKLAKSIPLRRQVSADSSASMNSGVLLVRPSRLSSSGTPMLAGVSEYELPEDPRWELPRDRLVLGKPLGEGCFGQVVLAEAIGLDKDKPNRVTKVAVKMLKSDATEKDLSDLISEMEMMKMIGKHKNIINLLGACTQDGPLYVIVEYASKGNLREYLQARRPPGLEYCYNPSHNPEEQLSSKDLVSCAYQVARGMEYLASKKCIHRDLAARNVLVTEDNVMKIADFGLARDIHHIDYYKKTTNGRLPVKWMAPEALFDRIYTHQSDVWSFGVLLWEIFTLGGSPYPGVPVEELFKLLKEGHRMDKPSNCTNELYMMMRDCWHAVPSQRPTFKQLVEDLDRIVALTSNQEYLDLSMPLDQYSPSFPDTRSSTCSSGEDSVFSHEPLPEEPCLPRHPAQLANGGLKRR
Method: as §1, §2, §3, §4

[5] = test system: RT4 bladder cancer cell line; experiment: Inhibition on the proliferation of RT4 cells (luminescent cell viability assay); format: cell-based; conditions: Homo sapiens, RT-4, 72 hours
Method: (§5) CellTilter-Glo reagent (Promega, Cat. No. G7572) consists of CTG lyophilized powder and CTG buffer. Before use, the lyophilized powder needs to be dissolved in the buffer.
(§6) After overnight incubation, 3 μL of DMEM diluted compound was added to each well, which was then gently centrifuged to mix well, and then the 384-well plate was placed in a 37° C., 5% CO2 incubator to continue the culture, and after 72 hours, the plate was taken out and allowed to stand at room temperature for 30 minutes, next added 15 μL of CTG reagent per well, which was warmed up to room temperature, the plate was shaken gently on a shaker for 3 minutes to ensure sufficient cell lysis, allowed to stand 10 minutes to stabilize the luminescence signal, and then read the luminescence signal with EnVision (Perkin Elmer).
as §4
The effect of the compounds of the present invention on cell proliferation of the RT4 bladder cancer cell line was assessed using a luminescent cell viability assay (Table 2).
(§7) For the experimental method, please refer to the method for determining the inhibition on the proliferation of Hep3B cells.

[6] = test system: SNU-16 gastric cancer cell line; experiment: Inhibition on the proliferation of SNU-16 cells (luminescent cell viability assay); format: cell-based; conditions: Homo sapiens, 72 hours
Method: as §5, §6, §4
The effect of the compounds of the present invention on cell proliferation of SNU-16 gastric cancer cell line was assessed using a luminescent cell viability assay (Table 2).
as §7

Hep3B hepatoma cell line = experiment: Inhibition on the proliferation of Hep3B cells (luminescent cell viability assay); format: cell-based; conditions: Homo sapiens, 72 hours
Method: The effect of the compounds of the present invention on cell proliferation of Hep3B hepatoma cell line was assessed using a luminescent cell viability assay (Table 2).
as §5, §6, §4

[7] = test system: FGFR2-overexpressed SNU-16 gastric cancer cell line derived xenograft tumors; format: in vivo; conditions: 10 mg/kg oral BID
Method: The cells were harvested in 90% confluence and no less than 90% viability, and then counted. […] Mice were inoculated subcutaneously into the right flank with 200 uL of 8×10^6 SNU-16 cells resuspended in 50% Matrigel (purchased from Corning). […] Dosing was initiated on day 0 and effects on tumor growth were evaluated by measuring the percentage of tumor growth inhibition (TGI) at the end of the study. Tolerability was assessed by body weight loss, lethality, and clinical signs of adverse treatment-related side effects. Tumor volume and body weight were measured twice per week during the administration period. The percentage of TGI was determined on day 25 after treatment. The difference between the mean value of tumor volume in the treatment group and that in the vehicle group was analyzed for significance using one-way ANOVA (followed by Dennett's test) at each time point and a P<0.05 was considered to be statistically significant.

Chain of human recombinant FGFR4 catalytic domain protein (amino acid 460-802) (P22455 460-802): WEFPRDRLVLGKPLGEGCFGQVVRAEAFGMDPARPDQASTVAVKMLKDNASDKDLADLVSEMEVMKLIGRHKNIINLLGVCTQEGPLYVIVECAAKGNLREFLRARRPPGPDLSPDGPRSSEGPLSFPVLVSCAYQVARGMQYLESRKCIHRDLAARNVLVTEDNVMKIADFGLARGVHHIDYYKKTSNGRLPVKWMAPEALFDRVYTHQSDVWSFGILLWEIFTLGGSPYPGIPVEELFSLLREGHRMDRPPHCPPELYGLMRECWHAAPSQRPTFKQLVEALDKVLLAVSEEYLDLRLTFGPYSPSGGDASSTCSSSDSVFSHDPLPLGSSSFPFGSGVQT

IC50 [1] | IC50 [2] | IC50 [3] | IC50 [4] | IC50 [5] | IC50 [6] | IC50 (Hep3B hepatoma cell line) | SMILES | anti-tumor activity [7]
0.01 to 0.1 µM | 0.01 to 0.1 µM | < 0.01 µM | 0.01 to 0.1 µM | < 0.01 µM | < 0.01 µM |  | C=CC(=O)N1CC[C@H](n2nc(C#Cc3cc(OC)cc(OC)c3)c(C(N)=O)c2NCCOC)C1 [Compound 28, (S)-1-(1-acryloylpyrrolidin-3-yl)-3-((3,5-dimethoxyphenyl)ethynyl)-5-((2-methoxyethyl)amino)-1H-pyrazole-4-carboxamide] | 
0.01 to 0.1 µM | 0.01 to 0.1 µM | 0.01 to 0.1 µM | 0.1 to 1 µM |  |  |  | C=CC(=O)N1CC(n2cc(C(N)=O)c(C#Cc3cc(OC)cc(OC)c3)n2)C1 [Compound 3, 1-(1-acryloylazetidin-3-yl)-3-((3,5-dimethoxyphenyl)ethynyl)-1H-pyrazole-4-carboxamide] | 
0.01 to 0.1 µM | < 0.01 µM | 0.01 to 0.1 µM | 0.01 to 0.1 µM | 0.01 to 0.1 µM | < 0.01 µM |  | C=CC(=O)N1CC[C@H](n2nc(C#Cc3cc(Cl)ccc3F)c(C(N)=O)c2N)C1 [Compound 18, (S)-1-(1-acryloylpyrrolidin-3-yl)-5-amino-3-((5-chloro-2-fluorophenyl)ethynyl)-1H-pyrazole-4-carboxamide] | 
 | < 0.01 µM | < 0.01 µM | 0.01 to 0.1 µM | < 0.01 µM | < 0.01 µM | 0.01 to 0.1 µM | C=CC(=O)N1CC[C@H](n2nc(C#Cc3cc(OC)cc(OC)c3)c(C(N)=O)c2NCCN2CCOCC2)C1 [Compound 31, (S)-1-(1-acryloylpyrrolidin-3-yl)-3-((3,5-dimethoxyphenyl)ethynyl)-5-((2-morpholinoethyl)amino)-1H-pyrazole-4-carboxamide] | 
 | < 0.01 µM | < 0.01 µM | 0.01 to 0.1 µM |  |  |  | C=CC(=O)N1CC[C@H](n2nc(C#Cc3cc(OC)cc(OC)c3)c(C(N)=O)c2NC2CCN(C)CC2)C1 [Compound 34, (S)-1-(1-acryloylpyrrolidin-3-yl)-3-((3,5-dimethoxyphenyl)ethynyl)-5-((1-methylpiperidin-4-yl)amino)-1H-pyrazole-4-carboxamide] | 
0.01 to 0.1 µM |  |  | 0.01 to 0.1 µM | 0.01 to 0.1 µM | < 0.01 µM | 0.01 to 0.1 µM | CC#CC(=O)N1CC[C@H](n2nc(C#Cc3cc(OC)cc(OC)c3)c(C(N)=O)c2N)C1 [Compound 10] | 
< 0.01 µM | < 0.01 µM | < 0.01 µM | < 0.01 µM |  | 0.01 to 0.1 µM |  | C=CC(=O)N1CC[C@H](n2nc(C#Cc3cc(OC)cc(C(=O)NC)c3)c(C(N)=O)c2N)C1 [Compound 20, (S)-1-(1-acryloylpyrrolidin-3-yl)-5-amino-3-((3-methoxy-5-(methylcarbamoyl)phenyl)ethynyl)-1H-pyrazole-4-carboxamide] | 
 |  |  |  |  |  |  | CCN1CCN(c2ccc(Nc3cc(N(C)C(=O)Nc4c(Cl)c(OC)cc(OC)c4Cl)ncn3)cc2)CC1 [BGJ-398, reference compound] | significant anti-tumor activity
< 0.01 µM | < 0.01 µM | < 0.01 µM | < 0.01 µM |  | 0.01 to 0.1 µM |  | C=CC(=O)N1CC[C@H](n2nc(C#Cc3cc(C(=O)NC)ccc3Cl)c(C(N)=O)c2N)C1 [Compound 19, (S)-1-(1-acryloylpyrrolidin-3-yl)-5-amino-3-((2-chloro-5-(methylcarbamoyl)phenyl)ethynyl)-1H-pyrazole-4-carboxamide] | 
< 0.01 µM | < 0.01 µM | < 0.01 µM | < 0.01 µM |  |  |  | C=CC(=O)N1CC(n2nc(C#Cc3cc(OC)cc(OC)c3)c(C(N)=O)c2N)C1 [Compound 14, 1-(1-acryloylazetidin-3-yl)-5-amino-3-((3,5-dimethoxyphenyl)ethynyl)-1H-pyrazole-4-carboxamide] | 
0.01 to 0.1 µM | < 0.01 µM | < 0.01 µM | 0.01 to 0.1 µM |  |  |  | C=CC(=O)N1CC[C@@H](n2nc(C#Cc3cc(OC)cc(OC)c3)c(C(N)=O)c2N)C1 [Compound 13, (R)-1-(1-acryloylpyrrolidin-3-yl)-5-amino-3-((3,5-dimethoxyphenyl)ethynyl)-1H-pyrazole-4-carboxamide] | 
0.01 to 0.1 µM | 0.01 to 0.1 µM | 0.01 to 0.1 µM | 0.1 to 1 µM |  |  |  | C=CC(=O)N1CCC(n2nc(C#Cc3cc(OC)cc(OC)c3)c(C(N)=O)c2N)CC1 [Compound 15, 1-(1-acryloylpiperidin-4-yl)-5-amino-3-((3,5-dimethoxyphenyl)ethynyl)-1H-pyrazole-4-carboxamide] | 
0.01 to 0.1 µM | < 0.01 µM | < 0.01 µM | 0.1 to 1 µM | 0.1 to 1 µM |  | 0.1 to 1 µM | COc1cc(C#Cc2nn([C@H]3CCN(C#N)C3)c(N)c2C(N)=O)cc(OC)c1 [Compound 12, (S)-5-amino-1-(1-cyanopyrrolidin-3-yl)-3-((3,5-dimethoxyphenyl)ethynyl)-1H-pyrazole-4-carboxamide] | 
0.01 to 0.1 µM | 0.01 to 0.1 µM | < 0.01 µM | 0.01 to 0.1 µM |  |  |  | C=CC(=O)N1CCC(Cn2nc(C#Cc3cc(OC)cc(OC)c3)c(C(N)=O)c2N)C1 (stereo not shown) [Compound 16, 1-((1-acryloylpyrrolidin-3-yl)methyl)-5-amino-3-((3,5-dimethoxyphenyl)ethynyl)-1H-pyrazole-4-carboxamide] | 
